Assay results reported in the NIST ThermoML archive (doi:10.1021/je901030f).
Numbers after ± are expanded uncertainties.

Conditions: 101.33 kPa, Crystal, Buoyancy - hydrostatic balance with magnetic suspension - one sinker

SMILES	mass density (903 K) [kg/m3]	mass density (913 K) [kg/m3]	mass density (973 K) [kg/m3]	mass density (983 K) [kg/m3]	mass density (993 K) [kg/m3]	mass density (1013 K) [kg/m3]	mass density (1023 K) [kg/m3]	mass density (1033 K) [kg/m3]	mass density (1043 K) [kg/m3]	also measured
[Cl-].[Cs+] [cesium chloride]	3039.5 ± 15	3041.8 ± 16								mass density (843 K): 3074.5 ± 16 kg/m3; mass density (853 K): 3067.6 ± 16 kg/m3; mass density (863 K): 3060.2 ± 16 kg/m3; mass density (873 K): 3052.4 ± 16 kg/m3; mass density (883 K): 3046 ± 16 kg/m3; mass density (893 K): 3040.9 ± 15 kg/m3
[Cl-].[K+] [potassium chloride]			1805.8 ± 9.2	1803.6 ± 9.2	1800.6 ± 9.2	1794.5 ± 9.1	1793.6 ± 9.1	1793.6 ± 9.1	1796.6 ± 9.1	mass density (1003 K): 1797.1 ± 9.1 kg/m3
[Cl-].[Rb+] [rubidium chloride]	2578.4 ± 13	2573.5 ± 13	2547.6 ± 13	2550.3 ± 13	2556.4 ± 13					mass density (923 K): 2567.8 ± 13 kg/m3; mass density (933 K): 2562.2 ± 13 kg/m3; mass density (943 K): 2556.1 ± 13 kg/m3; mass density (953 K): 2551.7 ± 13 kg/m3; mass density (963 K): 2548.6 ± 13 kg/m3
[Cl-].[Na+] [sodium chloride]						1931.2 ± 9.8	1905.8 ± 9.7	1890.4 ± 9.6	1888.3 ± 9.6	mass density (1053 K): 1882 ± 9.6 kg/m3; mass density (1063 K): 1884.9 ± 9.6 kg/m3; mass density (1073 K): 1889.8 ± 9.6 kg/m3
